What was measured:
Assay type in all cases: cell-based
Escherichia coli [1] = assay: Traditional culture-based antimicrobial susceptibility test
Outline: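 Susceptibility of each E. coli isolate to each antimicrobial was determined the standard way: pathogens were grown, isolated and then exposed to the agents.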

[2] = tested on: pathogens of clinical samples; assay: Molecular phenotypic antimicrobial susceptibility test of clinical samples, direct PCR without a separate DNA purification step (Table 6)
Outline: (§1)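 For direct PCR, exposed cultures are lysed in buffer in the thermal cycler, whereas purified runs first isolate DNA with magnetic beads. Pathogen-specific or universal targets are amplified semi-quantitatively after 12-16 h of antimicrobial exposure in Mueller Hinton Broth.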

Escherichia coli [3] = assay: Molecular phenotypic antimicrobial susceptibility test (extraction or DNA purification prior to PCR)
Outline: as §1

[4] = tested on: pathogens of clinical samples; assay: Molecular phenotypic antimicrobial susceptibility test of clinical samples, extraction DNA purification step prior to PCR (Table 6)
Outline: as §1

[5] = E. coli, clinical sample of r10-r24
[6] = E. coli, clinical sample of r158-r172
[7] = K. aerogenes, clinical sample of r136-r150
[8] = K. pneumoniae, clinical sample of r121-r135
[9] = M. morganii, clinical sample of r55-r69
[10] = M. morganii, clinical sample of r70-r84
[11] = P. mirabilis, clinical sample of r25-r39
[12] = P. mirabilis, clinical sample of r40-r54
[13] = S. aureus, clinical sample of r85-r92

Substance: Trimethoprim/Sulfamethoxazole [TMP/SMX]
- Traditional Culture Result (Escherichia coli [1]; E. coli isolate 1 (Table 3)): Sensitive
- Traditional Culture Result (Escherichia coli [1]; E. coli isolate 2 (Table 3)): Sensitive
- Traditional Culture Result (Escherichia coli [1]; E. coli isolate 3 (Table 3)): Sensitive
- Traditional Culture Result (Escherichia coli [1]; E. coli isolate 4 (Table 3)): Resistant
- Traditional Culture Result (Escherichia coli [1]; E. coli isolate 5 (Table 3)): Sensitive
- Traditional Culture Result (Escherichia coli [1]; E. coli isolate JJ1887): Resistant
- Molecular Antibiotic Susceptibility Result [2, 5]: Sensitive (Antimicrobial wells with pathogen load detected below the control wells (typically >2 cycle thresholds later) may be reported as Sensitive)
- Ct ([2]; E. coli, clinical sample of r10-r24, Ct control avg 12.97): 24.066
- Molecular Antibiotic Susceptibility Result [2, 6]: Sensitive (Antimicrobial wells with pathogen load detected below the control wells (typically >2 cycle thresholds later) may be reported as Sensitive)
- Ct ([2]; E. coli, clinical sample of r158-r172, Ct control avg 12.894): 28.739
- Molecular Antibiotic Susceptibility Result [2, 7]: Sensitive (Antimicrobial wells with pathogen load detected below the control wells (typically >2 cycle thresholds later) may be reported as Sensitive)
- Ct ([2]; K. aerogenes, clinical sample of r136-r150, Ct control avg 13.854): 30.511
- Molecular Antibiotic Susceptibility Result [2, 8]: Sensitive (Antimicrobial wells with pathogen load detected below the control wells (typically >2 cycle thresholds later) may be reported as Sensitive)
- Ct ([2]; K. pneumoniae, clinical sample of r121-r135, Ct control avg […]): 29.719
- Molecular Antibiotic Susceptibility Result [2, 9]: Sensitive (Antimicrobial wells with pathogen load detected below the control wells (typically >2 cycle thresholds later) may be reported as Sensitive)
- Ct ([2]; M. morganii, clinical sample of r55-r69, Ct control avg 12.09): 22.916
- Molecular Antibiotic Susceptibility Result [2, 10]: Sensitive (Antimicrobial wells with pathogen load detected below the control wells (typically >2 cycle thresholds later) may be reported as Sensitive)
- Ct ([2]; M. morganii, clinical sample of r70-r84, Ct control avg 11.677): 22.281
- Molecular Antibiotic Susceptibility Result [2, 11]: Sensitive (Antimicrobial wells with pathogen load detected below the control wells (typically >2 cycle thresholds later) may be reported as Sensitive)
- Ct ([2]; P. mirabilis, clinical sample of r25-r39, Ct control avg 11.801): 23.476
- Molecular Antibiotic Susceptibility Result [2, 12]: Sensitive (Antimicrobial wells with pathogen load detected below the control wells (typically >2 cycle thresholds later) may be reported as Sensitive)
- Ct ([2]; P. mirabilis, clinical sample of r40-r54, Ct control avg 10.06): 25.628
- Molecular Antibiotic Susceptibility Result [2, 13]: Sensitive (Antimicrobial wells with pathogen load detected below the control wells (typically >2 cycle thresholds later) may be reported as Sensitive)
- Ct ([2]; S. aureus, clinical sample of r85-r92, Ct control avg 20.309): 28.965
- Ct at Sensitive Breakpoint (Escherichia coli [3]; E. coli isolate 1, Ct at control (average) 21.238): 32.294
- Molecular Antimicrobial Susceptibility Result (Escherichia coli [3]; E. coli isolate 1, at sensitive breakpoint): Sensitive (Antimicrobial wells with pathogen load detected below the control wells (typically >2 cycle thresholds later) may be reported as Sensitive)
- Ct at Sensitive Breakpoint (Escherichia coli [3]; E. coli isolate 2, Ct at control (average) 21.270): 28.875
- Molecular Antimicrobial Susceptibility Result (Escherichia coli [3]; E. coli isolate 2, at sensitive breakpoint): Sensitive (Antimicrobial wells with pathogen load detected below the control wells (typically >2 cycle thresholds later) may be reported as Sensitive)
- Ct at Sensitive Breakpoint (Escherichia coli [3]; E. coli isolate 3, Ct at control (average) 22.0995): 30.605
- Molecular Antimicrobial Susceptibility Result (Escherichia coli [3]; E. coli isolate 3, at sensitive breakpoint): Sensitive (Antimicrobial wells with pathogen load detected below the control wells (typically >2 cycle thresholds later) may be reported as Sensitive)
- Molecular Antimicrobial Susceptibility Result (Escherichia coli [3]; E. coli isolate 4, at sensitive breakpoint): Resistant
- Ct at Sensitive Breakpoint (Escherichia coli [3]; E. coli isolate 5, Ct at control (average) 21.0933): 29.12
- Molecular Antimicrobial Susceptibility Result (Escherichia coli [3]; E. coli isolate 5, at sensitive breakpoint): Sensitive (Antimicrobial wells with pathogen load detected below the control wells (typically >2 cycle thresholds later) may be reported as Sensitive)
- Molecular Antibiotic Susceptibility Result [4, 5]: Sensitive (Antimicrobial wells with pathogen load detected below the control wells (typically >2 cycle thresholds later) may be reported as Sensitive)
- Ct ([4]; E. coli, clinical sample of r10-r24, Ct Control Avg 18.112): 28.072
- Molecular Antibiotic Susceptibility Result [4, 6]: Sensitive (Antimicrobial wells with pathogen load detected below the control wells (typically >2 cycle thresholds later) may be reported as Sensitive)
- Ct ([4]; E. coli, clinical sample of r158-r172, Ct Control Avg 20.146): 33.402
- Molecular Antibiotic Susceptibility Result [4, 7]: Sensitive (Antimicrobial wells with pathogen load detected below the control wells (typically >2 cycle thresholds later) may be reported as Sensitive)
- Ct ([4]; K. aerogenes, clinical sample of r136-r150, Ct Control Avg 19.994): 36.5
- Molecular Antibiotic Susceptibility Result [4, 8]: Sensitive (Antimicrobial wells with pathogen load detected below the control wells (typically >2 cycle thresholds later) may be reported as Sensitive)
- Ct ([4]; K. pneumoniae, clinical sample of r121-r135, Ct Control Avg 24.272): 34.918
- Molecular Antibiotic Susceptibility Result [4, 9]: Sensitive (Antimicrobial wells with pathogen load detected below the control wells (typically >2 cycle thresholds later) may be reported as Sensitive)
- Ct ([4]; M. morganii, clinical sample of r55-r69, Ct Control Avg 28.86): Undet
- Molecular Antibiotic Susceptibility Result [4, 10]: Sensitive (Antimicrobial wells with pathogen load detected below the control wells (typically >2 cycle thresholds later) may be reported as Sensitive)
- Ct ([4]; M. morganii, clinical sample of r70-r84, Ct Control Avg 27.053): 30.225
- Molecular Antibiotic Susceptibility Result [4, 11]: Sensitive (Antimicrobial wells with pathogen load detected below the control wells (typically >2 cycle thresholds later) may be reported as Sensitive)
- Ct ([4]; P. mirabilis, clinical sample of r25-r39, Ct Control Avg 26.064): 30.865
- Molecular Antibiotic Susceptibility Result [4, 12]: Sensitive (Antimicrobial wells with pathogen load detected below the control wells (typically >2 cycle thresholds later) may be reported as Sensitive)
- Ct ([4]; P. mirabilis, clinical sample of r40-r54, Ct Control Avg 26.987): 33.833
- Molecular Antibiotic Susceptibility Result [4, 13]: Sensitive (Antimicrobial wells with pathogen load detected below the control wells (typically >2 cycle thresholds later) may be reported as Sensitive)
- Ct ([4]; S. aureus, clinical sample of r85-r92, Ct Control Avg 24.32): 27.399

From patent US20250290117A1, “MOLECULAR PHENOTYPIC ANTIMICROBIAL SUSCEPTIBILITY TESTING” (priority 2024, published 2025)
